Data reported in PMC11992225, “Antibacterial compounds against non-growing and intracellular bacteria” (npj Antimicrobials and Resistance, 2025).
In brackets after ≈: the same amount, converted by molar mass. Where two headings read alike, the source gives them in different places.

How the values were obtained:
[1] = tested on: S. aureus DSM2569; assay: MIC, standard microdilution assay, growing S. aureus; type: cell-based, Staphylococcus aureus; settings: Staphylococcus aureus, DSM2569; S. aureus; CA-MHB pH 7.4; read-out: MIC (μM) CA-MHB
Method in brief: (§1)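 Broth microdilution was used throughout. UPEC, P. aeruginosa and S. aureus were tested in CA-MHB buffered with 40 mM HEPES (pH 7.4); UPEC was additionally tested in LPM with 30 mM MES (pH 5.5). S. flexneri was grown in TSB. All determinations were run in triplicate.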

[2] = tested on: P. aeruginosa DSM1117; assay: MIC, standard microdilution assay, growing P. aeruginosa; type: cell-based, Pseudomonas aeruginosa; settings: P. aeruginosa; for MIC: Pseudomonas aeruginosa, DSM1117
Method in brief: as §1

[3] = tested on: non-growing UPEC CFT073; assay: Dilution-regrowth assay (screen, hit validation, dose-response) on stationary-phase UPEC; type: cell-based, Escherichia coli; settings: for EC50: Escherichia coli, E. coli, pH 7.4, regrowth delay of non-growing bacteria, 1:4 CA-MHB, 24 h treatment, OD600 6 h after 2500-fold dilution, read-out: EC50; for Regrowth: OD600 after dilution into drug-free medium (mean): OD600 at 6h or 8h
Method in brief: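 Regrowth (OD600 after 6 h, 37 °C) of diluted non-growing CFT073, following 24 h compound treatment of 24 h stationary cultures, defines activity relative to untreated control. Screen at 20 µM, validation at 20, 10, 5 µM (duplicates), dose–response in three biological replicates fitted by five-parameter logistic.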

[4] = tested on: S. flexneri 5a M90T; assay: MIC in tryptic soy broth, S. flexneri; type: cell-based, Shigella flexneri; settings: Shigella flexneri, 5AM90T, read-out: MIC (μM) TSB
Method in brief: as §1

[5] = tested on: E. coli CFT073 (UPEC); assay: MIC, standard microdilution assay, growing UPEC; type: cell-based, Escherichia coli; settings: E. coli; for MIC: Escherichia coli; for MIC (μM) CA-MHB +PAβN: CA-MHB with 10 μg/ml efflux pump inhibitor PaβN
Method in brief: as §1

[6] = tested on: intracellular S. flexneri 5a M90T in TC7 cells; assay: microbe, parasite or virus in culture; type: cell-based, Shigella flexneri; settings: for IC50: Shigella flexneri, TC7, 14 h
From the text: Nonproliferating bacterial pathogens frequently inhabit intracellular environments, but establishing relevant infection models for high-throughput testing is challenging. Therefore, we firstly tested ability of the hit compounds to cross the eukaryotic cytoplasmic membrane barrier and inhibit growth of S. flexneri within the cytoplasm of the TC7 human colon adenocarcinoma cell line[59]. To this end, we developed a new, fluorescence-based method that enables real-time monitoring of growth of intracellular Shigella. We used S. flexneri 5a M90T strain producing the AfaE adhesin that enhances bacterial adhesion to epithelial cells and allows synchronization of invasion. The strain was further modified to constitutively express super-folder GFP (sfGFP), which enables monitoring bacterial growth by fluorescence measurement. The epithelial cells were grown to confluence and infected with bacteria at an MOI (multiplicity of infection) of 50. […] Following bacterial adhesion and invasion, the cells were incubated with varying concentrations of the hit compounds and intracellular bacterial growth was tracked by measuring green fluorescence.
The cells were split using trypsin, seeded in 96-well plates for infection, and grown to confluence, corresponding to approximately 40,000 cells per well.
A single colony of S. flexneri was inoculated into TSB supplemented with 50 μg/ml spectinomycin and incubated overnight at 37°C with agitation. The overnight culture was diluted 1:200 in fresh TSB, and the bacteria were grown at 37 °C until the OD600 reached 0.3–0.4, corresponding to approximately 2 × 10^7 CFU/ml. Bacteria were pelleted by centrifugation, washed twice with sterile PBS, and resuspended in infection solution (serum-free DMEM supplemented with 20 mM HEPES, pH 7.4). Just prior to infection, the medium was withdrawn, and the cells were washed twice with sterile PBS. The bacterial inoculum (MOI 50, 2 × 10^7 CFU/ml) was added to all wells except the no-infection control. The plates were incubated at room temperature for 15 min to allow bacterial adhesion, followed by a 1 h incubation at 37 °C with 5% CO2 to facilitate bacterial invasion.
Twofold serial dilutions of the drugs were prepared in infection solution containing 50 μg/ml gentamicin in a 96-well plate. After the invasion period, the bacterial inoculum was removed, and the serial dilutions of the drugs were added to the wells, except for the no-drug control. […] […] The experiments were performed in triplicates on separate days.
Statistical significance of the drug effects was assessed using a one-way ANOVA followed by Dunnett’s test, comparing each treatment to the drug-free control. Statistical significance of the differences in chemical characteristics between the hit compounds and the Prestwick library was assessed using a Mann–Whitney test. Statistical significance was set at P ≤ 0.05. A five-parameter logistic equation was used for asymmetric sigmoidal curve fitting and for EC50 and IC50 determination. The Venn diagram in Fig. 1F was prepared using BioVenn web application. Characteristics of the chemical and physical properties of Prestwick library compounds were obtained from Supplementary Table S1 from reference. Characteristics of the hit compounds not included in the Prestwick library were retrieved from the PubChem database.

[7] = 1:4 diluted CA-MHB pH 7.4, read-out: MIC (μM) 1:4 CA-MHB
[8] = CA-MHB pH 7.4, read-out: MIC (μM) CA-MHB
[9] = pH 7.4, CA-MHB, read-out: MIC (μM) CA-MHB
[10] = TC7 cells infected with GFP-expressing S. flexneri, 14 h treatment
[11] = pH 7.4, 1:4 diluted CA-MHB, read-out: MIC (μM) 1:4 CA-MHB

## CN1C[C@@H]2C[C@H]1CN2c1cc2c(cc1F)c(=O)c(C(=O)O)cn2C1CC1 [Danofloxacin]
[1]
  MIC: 0.5 µM (≈ 0.179 µg/mL)
[2]; [7]
  MIC: 4 µM (≈ 1.43 µg/mL)
[2]; [8]
  MIC: 4 µM (≈ 1.43 µg/mL)
[3]
  EC50: 2.16 µM
[4]
  MIC: 0.0625 µM (≈ 0.0223 µg/mL)
[5]; [9]
  MIC: 0.125 µM (≈ 0.0447 µg/mL)
[6]
  IC50: 0.052 µM
[6]; [10]
  Fluorescence intensity (RFU), Mean, 0.25 x MIC: 9638.21 RFU
  Fluorescence intensity (RFU), Mean, 0.5 x MIC: 8906.42 RFU
  Fluorescence intensity (RFU), Mean, 2 x MIC: 3750.58 RFU
  Fluorescence intensity (RFU), Mean, 4 x MIC: 3092.69 RFU
  Fluorescence intensity (RFU), Mean, 8 x MIC: 2319.78 RFU
  Fluorescence intensity (RFU), Mean, 16 x MIC: 1798.5 RFU
  Fluorescence intensity (RFU), Mean, 32 x MIC: 1629.06 RFU
  Fluorescence intensity (RFU), Mean, MIC: 4339.36 RFU

## COc1c(N2CCNC(C)C2)c(F)cc2c(=O)c(C(=O)O)cn(C3CC3)c12 (stereo not drawn) [Gatifloxacin]
[1]
  MIC: 0.5 µM (≈ 0.188 µg/mL)
[2]; [7]
  MIC: 4 µM (≈ 1.5 µg/mL)
[2]; [8]
  MIC: 4 µM (≈ 1.5 µg/mL)
[3]
  EC50: 0.709 µM
[4]
  MIC: 0.0312 µM (≈ 0.0117 µg/mL)
[5]; [9]
  MIC: 0.125 µM (≈ 0.0469 µg/mL)
[6]
  IC50: 0.034 µM
[6]; [10]
  Fluorescence intensity (RFU), Mean, 0.5 x MIC: 7621.42 RFU
  Fluorescence intensity (RFU), Mean, 2 x MIC: 3709.33 RFU
  Fluorescence intensity (RFU), Mean, 4 x MIC: 3006.58 RFU
  Fluorescence intensity (RFU), Mean, 8 x MIC: 2924.83 RFU
  Fluorescence intensity (RFU), Mean, 16 x MIC: 2191.44 RFU
  Fluorescence intensity (RFU), Mean, 32 x MIC: 1768.58 RFU
  Fluorescence intensity (RFU), Mean, MIC: 5214.92 RFU

## CC[C@H]1OC(=O)[C@@](C)(F)C(=O)[C@H](C)[C@@H](O[C@@H]2O[C@H](C)C[C@H](N(C)C)[C@H]2O)[C@](C)(OC)C[C@@H](C)C(=O)[C@H](C)[C@H]2N(CCCCn3cc(-c4cccc(N)c4)nn3)C(=O)O[C@]12C [Solithromycin]
[1]
  MIC: 0.05 µM (≈ 0.0423 µg/mL)
[2]; CA-MHB with 10 μg/ml PaβN
  MIC (μM) CA-MHB +PAβN: >80 µM
[2]; [7]
  MIC: 80 µM (≈ 67.6 µg/mL)
[2]; [8]
  MIC: 80 µM (≈ 67.6 µg/mL)
[3]
  EC50: 0.288 µM
[4]
  MIC: 8 µM (≈ 6.76 µg/mL)
[5]; pH 7.4
  MIC (μM) CA-MHB +PAβN: 4 µM (≈ 3.38 µg/mL)
[5]; [11]
  MIC: 10 µM (≈ 8.45 µg/mL)
[5]; [9]
  MIC: 8 µM (≈ 6.76 µg/mL)
[6]; S. flexneri MIC in TSB versus intracellular IC50
  MIC:IC50 ratio: > 2
[6]
  IC50: 1.68 µM
[6]; TC7 cells infected with GFP-expressing S. flexneri, 14 h treatment, 0.0625 x MIC
  Fluorescence intensity (RFU), Mean, 0.0625 x MIC: 9882.71 RFU
[6]; TC7 cells infected with GFP-expressing S. flexneri, 14 h treatment, 0.125 x MIC
  Fluorescence intensity (RFU), Mean, 0.125 x MIC: 9214.08 RFU
[6]; [10]
  Fluorescence intensity (RFU), Mean, 0.25 x MIC: 4637.62 RFU
  Fluorescence intensity (RFU), Mean, 0.5 x MIC: 2156.75 RFU
  Fluorescence intensity (RFU), Mean, 2 x MIC: 1563.03 RFU
  Fluorescence intensity (RFU), Mean, 4 x MIC: 1560.69 RFU
  Fluorescence intensity (RFU), Mean, 8 x MIC: 1548.25 RFU
  Fluorescence intensity (RFU), Mean, 16 x MIC: 1546 RFU
  Fluorescence intensity (RFU), Mean, 32 x MIC: 1533.19 RFU
  Fluorescence intensity (RFU), Mean, MIC: 1837.61 RFU

## CO[C@H]1/C=C/O[C@@]2(C)Oc3c(C)c(O)c4c(c3C2=O)C2=NC3(CCN(CC(C)C)CC3)NC2=C(NC(=O)/C(C)=C\C=C\[C@H](C)[C@H](O)[C@@H](C)[C@@H](O)[C@@H](C)[C@H](OC(C)=O)[C@@H]1C)C4=O [Rifabutin]
[1]
  MIC: 0.025 µM (≈ 0.0212 µg/mL)
[2]; [7]
  MIC: 10 µM (≈ 8.47 µg/mL)
[2]; [8]
  MIC: 40 µM (≈ 33.9 µg/mL)
[3]; E. coli in 1:4 CA-MHB (pH 7.4), concentration 0.25
  Regrowth: OD600 after dilution into drug-free medium (mean): 0.656
[3]; E. coli in 1:4 CA-MHB (pH 7.4), concentration 0.5
  Regrowth: OD600 after dilution into drug-free medium (mean): 0.633
[3]; E. coli in 1:4 CA-MHB (pH 7.4), concentration 1
  Regrowth: OD600 after dilution into drug-free medium (mean): 0.623
[3]; E. coli in 1:4 CA-MHB (pH 7.4), concentration 2.5
  Regrowth: OD600 after dilution into drug-free medium (mean): 0.617
[3]; E. coli in 1:4 CA-MHB (pH 7.4), concentration 5
  Regrowth: OD600 after dilution into drug-free medium (mean): 0.605
[3]; E. coli in 1:4 CA-MHB (pH 7.4), concentration 10
  Regrowth: OD600 after dilution into drug-free medium (mean): 0.612
[3]; E. coli in LPM (pH 5.5), concentration 0.25
  Regrowth: OD600 after dilution into drug-free medium (mean): 0.569
[3]; E. coli in LPM (pH 5.5), concentration 0.5
  Regrowth: OD600 after dilution into drug-free medium (mean): 0.563
[3]; E. coli in LPM (pH 5.5), concentration 1
  Regrowth: OD600 after dilution into drug-free medium (mean): 0.555
[3]; E. coli in LPM (pH 5.5), concentration 2.5
  Regrowth: OD600 after dilution into drug-free medium (mean): 0.521
[3]; E. coli in LPM (pH 5.5), concentration 5
  Regrowth: OD600 after dilution into drug-free medium (mean): 0.497
[3]; E. coli in LPM (pH 5.5), concentration 10
  Regrowth: OD600 after dilution into drug-free medium (mean): 0.485
[4]
  MIC: 32 µM (≈ 27.1 µg/mL)
[5]; LPM pH 5.5, read-out: MIC
  MIC: 2 µM (≈ 1.69 µg/mL)
[5]; [11]
  MIC: 0.625 µM (≈ 0.529 µg/mL)
[5]; [9]
  MIC: 8 µM (≈ 6.78 µg/mL)

## C=C[C@]1(C)C[C@@H](OC(=O)CSC(C)(C)CNC(=O)[C@H](N)C(C)C)[C@]2(C)[C@H](C)CC[C@]3(CCC(=O)[C@H]32)[C@@H](C)[C@@H]1O [Valnemulin]
[1]
  MIC: 0.125 µM (≈ 0.0706 µg/mL)
[2]; [7]
  MIC: > 160 µM
[2]; [8]
  MIC: > 160 µM
[3]
  EC50: 0.373 µM
[3]; regrowth delay and killing, Figs. 2 and 3
  activity against non-growing UPEC in LPM (pH 5.5) compared to 1:4 CA-MHB (pH 7.4): active at pH 7.4 and completely inactive in the acidic medium
[4]
  MIC: 16 µM (≈ 9.04 µg/mL)
[5]; pH 7.4
  MIC (μM) CA-MHB +PAβN: 10 µM (≈ 5.65 µg/mL)
[5]; [11]
  MIC: 10 µM (≈ 5.65 µg/mL)
[5]; [9]
  MIC: 20 µM (≈ 11.3 µg/mL)
